Consider 2 compounds from ChEMBL document CHEMBL1154399, “Induction of voriconazole metabolism by rifampin in a patient with acute myeloid leukemia: importance of interdisciplinary communication to prevent treatment errors with complex medications” (Antimicrob Agents Chemother, 2007).

What all share (assay type): ADME, organism-based
For series [1], the system named is Homo sapiens. As to the kind of experiment: Effect on voriconazole metabolism in po dosed […] infection patient assessed as decrease in voriconazole exposure levels after 30 days. Also noted: scale not given: the % may be the effect or the level left. As to conditions: in vivo, 720 h.
Series [2] concerns Homo sapiens. As to the kind of experiment: Induction of voriconazole metabolism in po dosed […] infection patient assessed as increase in hydroxyvoriconazole levels after 30 days. The note with it: in vivo, 720 h.
Series [3] concerns Homo sapiens. As to the kind of experiment: Induction of voriconazole metabolism in po dosed […] infection patient assessed as increase in dihydroxyvoriconazole levels after 30 days. As to conditions: in vivo, 720 h.
Series [4] deals with Homo sapiens. The experiment in a line: Induction of voriconazole metabolism in po dosed […] infection patient assessed as increase in voriconazole N-oxide metabolite levels after 30 days. The note with it: in vivo, 720 h.
Series [5] in a line: Cmax in […] infection patient at 400 mg, po administered daily after 36 days of drug therapy and 30 days of rifampin coadministration. Also noted: dose 400 mg, route oral. The note with it: human, in vivo.
The nature of series [6]: Cmax in […] infection patient at 400 mg, po administered daily. Also noted: dose 400 mg, route oral. The note with it: human, in vivo.
Series [7] can be described thus: AUC (0 to infinity) in […] infection patient at 400 mg, po administered daily. Also noted: dose 400 mg, route oral, time infinity. As to conditions: human, plasma.
A short description of series [8]: AUC (0 to infinity) in […] infection patient at 400 mg, po administered daily after 36 days of drug therapy and 30 days of rifampin coadministration. Also noted: dose 400 mg, route oral, time infinity. As to conditions: human, plasma.

On to `CO[C@H]1/C=C/O[C@@]2(C)Oc3c(C)c(O)c4c(O)c(c(/C=N/N5CCN(C)CC5)c(O)c4c3C2=O)NC(=O)/C(C)=C\C=C\[C@H](C)[C@H](O)[C@@H](C)[C@@H](O)[C@@H](C)[C@H](OC(C)=O)[C@@H]1C` [RIFAMPIN], for which the Activity with Homo sapiens [1] amounted to 99%. Besides, the “fold change (FC)” value is 178 in the series on Homo sapiens [2], 422 with Homo sapiens [3] and 45 with Homo sapiens [4].
Usually Cmax stands for the highest concentration seen after dosing. One may read the AUC(0-inf) as the area under the concentration-time curve extrapolated to infinity. Take `C[C@@H](c1ncncc1F)[C@](O)(Cn1cncn1)c1ccc(F)cc1F` [VORICONAZOLE]: the Cmax was determined as 38 ng/mL in series [5] and 3920 ng/mL in series [6]. Besides, the AUC(0-inf) in series [7] is 27400 ng·h/mL; in series [8] it was 145 ng·h/mL.
